The source of these data is US8778923B2, “GLP-1 receptor modulators” (Receptos, Inc., priority 2011, dated 2014).

The structures appear in SMILES notation. pEC50: −log10 of the molar value. Bounds are passed on as bounds.

T1 sequence (P43220 24-463): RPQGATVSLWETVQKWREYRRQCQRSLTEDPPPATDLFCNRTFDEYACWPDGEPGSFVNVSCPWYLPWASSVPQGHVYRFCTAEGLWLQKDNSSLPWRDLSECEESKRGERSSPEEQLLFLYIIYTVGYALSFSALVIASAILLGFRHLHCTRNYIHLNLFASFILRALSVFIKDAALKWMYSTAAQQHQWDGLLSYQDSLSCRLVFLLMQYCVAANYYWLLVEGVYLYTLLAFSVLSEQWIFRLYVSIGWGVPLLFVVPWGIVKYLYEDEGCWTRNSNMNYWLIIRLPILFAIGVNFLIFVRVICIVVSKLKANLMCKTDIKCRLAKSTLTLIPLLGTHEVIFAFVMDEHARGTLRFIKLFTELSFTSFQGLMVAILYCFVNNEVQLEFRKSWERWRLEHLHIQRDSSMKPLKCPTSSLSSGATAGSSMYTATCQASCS
T1 sequence (P01275 100-127 partner limits assumed): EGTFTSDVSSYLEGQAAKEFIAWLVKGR

This assay concerns the target T1, GLP-1R (Homo sapiens, UniProt P43220).
T1 construct: host or cells: CRE-bla CHO-K1
The assay is described as follows: EC20 GLP-1(9-36) PAM cAMP assay: dose response of compound in the presence of fixed concentration of GLP-1(9-36). As to conditions: GLP-1R CRE-bla CHO-K1 cells, compound dose response in presence of fixed concentration of GLP-1(9-36). Format: cell-based. An outline of the steps: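 GLP-1R CRE-bla CHO-K1 cells in HBSS/10 mM Hepes/0.1% BSA pH 7.4 with IBMX got a 12-point compound dose response plus fixed EC20 GLP-1(9-36), 30 min at 37 °C. cAMP measured by HitHunter luminescence against a standard curve; EC50 and Emax by non-linear regression.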
As to `CCCCCCCOc1ccc(-c2cnc(-c3ccc(C[C@H](NC(=O)c4cnn(C(C)(C)C)c4)C(=O)O)cc3)nc2)cc1` [Compound 143], the negative logarithm of the EC50 (pEC50) was > 6.10. Consider `CCCCCCCOc1ccc(-c2cnc(-c3ccc(C[C@H](NC(=O)c4ccn(C(C)C)n4)C(=O)O)cc3)nc2)cc1` [Compound 144], for which the pEC50 was 5.60 to 6.10. With `CCCCCCCOc1ccc(-c2cnc(-c3ccc(C[C@H](NC(=O)c4cc(C)c(CC)s4)C(=O)O)cc3)nc2)cc1` [Compound 145] the figure was 5.60 to 6.10.

With `CCCCCCCOc1ccc(-c2cnc(-c3ccc(C[C@H](NC(=O)c4csc(C(C)C)c4)C(=O)O)cc3)nc2)cc1` [Compound 146], the pEC50 is 5.30 to 5.60.

For the compound `CCCCCCCOc1ccc(-c2cnc(-c3ccc(C[C@H](NC(=O)c4ccc(CCC)s4)C(=O)O)cc3)nc2)cc1` [Compound 147], the negative logarithm of the EC50 (pEC50) is 5.30 to 5.60. As to `CCCCCCCOc1ccc(-c2cnc(-c3ccc(C[C@H](NC(=O)c4cnc(C(C)C)s4)C(=O)O)cc3)nc2)cc1` [Compound 148], the pEC50 is 5.60 to 6.10. The value for `CCCCCCCOc1ccc(-c2cnc(-c3ccc(C[C@H](NC(=O)c4cc5c(s4)CCCC5)C(=O)O)cc3)nc2)cc1` [Compound 149] was 5.60 to 6.10. On to `CCCCCCCOc1ccc(-c2cnc(-c3ccc(C[C@H](NC(=O)c4cc5c(s4)CCC5)C(=O)O)cc3)nc2)cc1` [Compound 150], for which the pEC50 was 5.60 to 6.10. The value for `CCCCCCCOc1ccc(-c2cnc(-c3ccc(C[C@H](NC(=O)c4cc5c(s4)CCC(C)C5)C(=O)O)cc3)nc2)cc1` (some centres unmarked) [Compound 151] was 5.60 to 6.10; that for `CCCCCCCOc1ccc(-c2cnc(-c3ccc(C[C@H](NC(=O)c4ccc(C(C)C)s4)C(=O)O)cc3)nc2)cc1` [Compound 152] was 5.60 to 6.10. The value for `CCCCCCCOc1ccc(-c2cnc(-c3ccc(C[C@H](NC(=O)c4ccc(CC(C)C)s4)C(=O)O)cc3)nc2)cc1` [Compound 153] was 5.60 to 6.10; that for `CCCCCCCOc1ccc(-c2cnc(-c3ccc(C[C@H](NC(=O)c4ccc(C(C)=O)s4)C(=O)O)cc3)nc2)cc1` [Compound 154] was > 6.10; that for `CCCCCCCOc1ccc(-c2cnc(-c3ccc(C[C@H](NC(=O)Cc4cc5ccccc5s4)C(=O)O)cc3)nc2)cc1` [Compound 155] was 5.60 to 6.10. The value for `CCCCCCCOc1ccc(-c2cnc(-c3ccc(C[C@H](NC(=O)c4cc5ccccc5s4)C(=O)O)cc3)nc2)cc1` [Compound 156] was 5.60 to 6.10; that for `CCCCCCCOc1ccc(-c2cnc(-c3ccc(C[C@H](NC(=O)c4cc5ccc(C)cc5s4)C(=O)O)cc3)nc2)cc1` [Compound 157] was 5.60 to 6.10; that for `CCCCCCCOc1ccc(-c2cnc(-c3ccc(C[C@H](NC(=O)c4cc5cccnc5s4)C(=O)O)cc3)nc2)cc1` [Compound 158] was > 6.10. For `CC(C)(C)c1ccc(-c2cnc(-c3ccc(C[C@H](NC(=O)c4ccc(S(C)(=O)=O)cc4)C(=O)O)cc3)nc2)cc1` [Compound 159], the pEC50 is 5.60 to 6.10.

For `CCc1ccc(C(=O)N[C@@H](Cc2ccc(-c3ncc(-c4ccc(C(C)(C)C)cc4)cn3)cc2)C(=O)O)cc1` [Compound 160], the pEC50 was 5.60 to 6.10. With `CC(C)c1ccc(C(=O)N[C@@H](Cc2ccc(-c3ncc(-c4ccc(C(C)(C)C)cc4)cn3)cc2)C(=O)O)cc1` [Compound 161] the figure was 5.60 to 6.10; with `CC(C)Oc1ccc(C(=O)N[C@@H](Cc2ccc(-c3ncc(-c4ccc(C(C)(C)C)cc4)cn3)cc2)C(=O)O)cc1` [Compound 162], 5.60 to 6.10.

In the case of `CC(C)Cc1ccc(C(=O)N[C@@H](Cc2ccc(-c3ncc(-c4ccc(C(C)(C)C)cc4)cn3)cc2)C(=O)O)cc1` [Compound 163], the pEC50 is 5.60 to 6.10. The value for `CCCc1ccc(C(=O)N[C@@H](Cc2ccc(-c3ncc(-c4ccc(C(C)(C)C)cc4)cn3)cc2)C(=O)O)cc1` [Compound 164] was 5.60 to 6.10; that for `CC(C)(C)c1ccc(-c2cnc(-c3ccc(C[C@H](NC(=O)c4ccc(C(C)(C)C)s4)C(=O)O)cc3)nc2)cc1` [Compound 165] was 5.60 to 6.10. With `CCc1ccc(C(=O)N[C@@H](Cc2ccc(-c3ncc(-c4ccc(C(C)(C)C)cc4)cn3)cc2)C(=O)O)s1` [Compound 166] the figure was 5.60 to 6.10; with `CC(C)n1cc(C(=O)N[C@@H](Cc2ccc(-c3ncc(-c4ccc(C(C)(C)C)cc4)cn3)cc2)C(=O)O)cn1` [Compound 167], 5.60 to 6.10; with `CC(C)(C)c1ccc(-c2cnc(-c3ccc(C[C@H](NC(=O)c4cc(C(C)(C)C)n[nH]4)C(=O)O)cc3)nc2)cc1` [Compound 168], 5.60 to 6.10. In the case of `CC(C)(C)c1ccc(-c2cnc(-c3ccc(C[C@H](NC(=O)c4nnc(C(C)(C)C)s4)C(=O)O)cc3)nc2)cc1` [Compound 169], the pEC50 is 5.00 to 5.30. With `COc1ccc(C(=O)N[C@@H](Cc2ccc(-c3ncc(-c4ccc(C(C)(C)C)cc4)cn3)cc2)C(=O)O)cc1` [Compound 170] the figure was 5.60 to 6.10; with `CCOc1ccc(C(=O)N[C@@H](Cc2ccc(-c3ncc(-c4ccc(C(C)(C)C)cc4)cn3)cc2)C(=O)O)cc1` [Compound 171], 5.60 to 6.10; with `CC(C)(C)Cc1ccc(C(=O)N[C@@H](Cc2ccc(-c3ncc(-c4ccc(C(C)(C)C)cc4)cn3)cc2)C(=O)O)cc1` [Compound 172], 5.60 to 6.10.

Turning to `CC(C)(C)c1ccc(-c2cnc(-c3ccc(C[C@H](NC(=O)c4ccc(OC(F)(F)F)cc4)C(=O)O)cc3)nc2)cc1` [Compound 173], the negative logarithm of the EC50 (pEC50) was 5.60 to 6.10. With `CC(C)(C)c1ccc(-c2cnc(-c3ccc(C[C@H](NC(=O)c4ccc(C(F)(F)F)cc4)C(=O)O)cc3)nc2)cc1` [Compound 174] the figure was > 6.10; with `CC(C)(C)c1ccc(-c2cnc(-c3ccc(C[C@H](NC(=O)c4ccc(O)cc4)C(=O)O)cc3)nc2)cc1` [Compound 175], > 6.10; with `CC(=O)c1ccc(C(=O)N[C@@H](Cc2ccc(-c3ncc(-c4ccc(C(C)(C)C)cc4)cn3)cc2)C(=O)O)cc1` [Compound 176], 5.00 to 5.30. The value for `CC(C)(C)c1ccc(-c2cnc(-c3ccc(C[C@H](NC(=O)c4ncc(C(C)(C)C)s4)C(=O)O)cc3)nc2)cc1` [Compound 177] was 5.60 to 6.10. The value for `CC(C)(C)c1ccc(-c2cnc(-c3ccc(C[C@H](NC(=O)c4cnn(C(C)(C)C)c4)C(=O)O)cc3)nc2)cc1` [Compound 178] was 5.60 to 6.10; that for `CC(C)c1cc(C(=O)N[C@@H](Cc2ccc(-c3ncc(-c4ccc(C(C)(C)C)cc4)cn3)cc2)C(=O)O)cs1` [Compound 179] was 5.00 to 5.30; that for `CC(C)c1ncc(C(=O)N[C@@H](Cc2ccc(-c3ncc(-c4ccc(C(C)(C)C)cc4)cn3)cc2)C(=O)O)s1` [Compound 180] was > 6.10. Turning to `CC(C)S(=O)(=O)c1ccc(C(=O)N[C@@H](Cc2ccc(-c3ncc(-c4ccc(C(C)(C)C)cc4)cn3)cc2)C(=O)O)cc1` [Compound 181], the pEC50 is 5.60 to 6.10. The value for `CC(C)(C)c1ccc(-c2cnc(-c3ccc(C[C@@H](NC(=O)c4ccc(C(C)(C)C)s4)C(=O)O)cc3)nc2)cc1` [Compound 182] was 5.60 to 6.10; that for `CCCCCCCOc1ccc(-c2cnc(-c3ccc(C[C@H](NC(=O)c4ccc(OS(C)(=O)=O)cc4)C(=O)O)cc3)nc2)cc1` [Compound 183] was 5.60 to 6.10; that for `CCCCCCCOc1ccc(-c2cnc(-c3ccc(C[C@H](NS(=O)(=O)c4ccccc4)C(=O)O)cc3)nc2)cc1` [Compound 184] was 5.60 to 6.10. `CCCCCCCOc1ccc(-c2cnc(-c3ccc(C[C@H](NS(=O)(=O)c4ccc(Cl)cc4)C(=O)O)cc3)nc2)cc1` [Compound 185]: the pEC50 is 5.60 to 6.10. With `CCCCCCCOc1ccc(-c2cnc(-c3ccc(C[C@H](NS(=O)(=O)c4ccc(OC)cc4)C(=O)O)cc3)nc2)cc1` [Compound 186] the figure was 5.60 to 6.10. With `CCCCCCCOc1ccc(-c2cnc(-c3ccc(C[C@H](NS(=O)(=O)c4ccc(C)cc4)C(=O)O)cc3)nc2)cc1` [Compound 187] the figure was 5.30 to 5.60; with `CCCCCCCOc1ccc(-c2cnc(-c3ccc(C[C@H](NS(=O)(=O)c4ccc(Cl)c(Cl)c4)C(=O)O)cc3)nc2)cc1` [Compound 188], 5.30 to 5.60.

On to `CCCCCCCOc1ccc(-c2cnc(-c3ccc(C[C@H](NS(=O)(=O)c4ccc(OC(C)C)cc4)C(=O)O)cc3)nc2)cc1` [Compound 189], for which the pEC50 was 5.60 to 6.10. With `CCCCCCCOc1ccc(-c2cnc(-c3ccc(C[C@H](NS(=O)(=O)c4ccc(C(F)(F)F)cc4)C(=O)O)cc3)nc2)cc1` [Compound 190] the figure was 5.30 to 5.60; with `CCCCCCCOc1ccc(-c2cnc(-c3ccc(C[C@H](NC(=O)c4ccc(C(C)(C)C)s4)C(=O)O)cc3)nc2)cc1` [Compound 192, (S)-2-(5-(tert-butyl)thiophene-2-carboxamido)-3-(4-(5-(4-(heptyloxy)phenyl)-pyrimidin-2-yl)phenyl)propanoic acid], > 6.10.

On to `CCCCCCCOc1ccc(-c2cnc(-c3ccc(C[C@@H](NC(=O)c4ccc(C(C)(C)C)s4)C(=O)O)cc3)nc2)cc1` [Compound 193], for which the pEC50 is 5.60 to 6.10.

As to `CC(C)(C)c1ccc(C(=O)N[C@@H](Cc2ccc(-c3ncc(-c4ccc(N5CCCCC5)cc4)cn3)cc2)C(=O)O)cc1` [Compound 194], the negative logarithm of the EC50 (pEC50) is 5.60 to 6.10. With `CC(C)c1ccc(-c2cnc(-c3ccc(C[C@H](NC(=O)c4ccc(C(C)(C)C)cc4)C(=O)O)cc3)nc2)cc1` [Compound 195] the figure was 5.60 to 6.10. The value for `CC(C)(C)c1ccc(C(=O)N[C@@H](Cc2ccc(-c3ncc(-c4ccccc4)cn3)cc2)C(=O)O)cc1` [Compound 196] was 5.30 to 5.60; that for `Cn1ccc2c(-c3cnc(-c4ccc(C[C@H](NC(=O)c5ccc(C(C)(C)C)cc5)C(=O)O)cc4)nc3)cccc21` [Compound 197] was 5.30 to 5.60; that for `COc1ccc(-c2cnc(-c3ccc(C[C@H](NC(=O)c4ccc(C(C)(C)C)cc4)C(=O)O)cc3)nc2)cc1` [Compound 198] was 5.00 to 5.30. `CC(C)(C)c1ccc(C(=O)N[C@@H](Cc2ccc(-c3ncc(-c4ccc(C(C)(C)C)cc4)cn3)cc2)C(=O)O)cc1` [Compound 199]: the pEC50 was 5.60 to 6.10.
